Results reported in patent US12303497B2, “Anti-androgens for the treatment of metastatic castration-sensitive prostate cancer” (priority 2019, dated 2025).

Legend:
Plasma protein binding = assay type: in vitro ADME
[1] = Single oral administration of radiolabeled apalutamide (AUC share, excretion); assay type: in vivo
[2] = tested on: multidrug and toxin extrusions (MATEs); assay: In vitro transporter inhibition; assay type: in vitro ADME
[3] = human, in vivo
P-gp = P-gp (Homo sapiens, UniProt P08183); conditions: not told
BCRP = BCRP (Homo sapiens, UniProt Q9UNQ0); conditions: not told
Sequence of BCRP (Q9UNQ0 whole entry): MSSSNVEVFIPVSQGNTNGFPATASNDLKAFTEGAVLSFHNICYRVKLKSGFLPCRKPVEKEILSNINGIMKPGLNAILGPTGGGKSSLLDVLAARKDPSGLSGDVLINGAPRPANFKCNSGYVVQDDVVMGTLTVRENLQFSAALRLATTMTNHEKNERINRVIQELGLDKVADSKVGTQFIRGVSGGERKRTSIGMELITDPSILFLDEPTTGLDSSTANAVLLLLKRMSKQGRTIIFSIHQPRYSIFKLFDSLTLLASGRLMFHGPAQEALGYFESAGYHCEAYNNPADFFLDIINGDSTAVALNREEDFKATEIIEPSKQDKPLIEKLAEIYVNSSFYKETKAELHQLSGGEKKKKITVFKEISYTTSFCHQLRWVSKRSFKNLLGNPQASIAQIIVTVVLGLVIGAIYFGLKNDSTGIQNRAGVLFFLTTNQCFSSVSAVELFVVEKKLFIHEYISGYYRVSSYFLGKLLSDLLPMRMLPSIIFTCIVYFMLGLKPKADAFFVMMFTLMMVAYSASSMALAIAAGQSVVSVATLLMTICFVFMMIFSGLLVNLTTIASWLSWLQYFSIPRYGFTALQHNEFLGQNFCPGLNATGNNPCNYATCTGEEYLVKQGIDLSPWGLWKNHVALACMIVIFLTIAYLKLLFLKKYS

OATP1B1 = OATP1B1 (Homo sapiens, UniProt Q9Y6L6)
OATP1B3 = OATP1B3 (Homo sapiens, UniProt Q9NPD5)
CYP2B6 = CYP2B6 (Homo sapiens, UniProt P20813)
CYP2C8 = target: T1, CYP2C8 (Homo sapiens, UniProt P10632)
T1 sequence (P10632 1-490): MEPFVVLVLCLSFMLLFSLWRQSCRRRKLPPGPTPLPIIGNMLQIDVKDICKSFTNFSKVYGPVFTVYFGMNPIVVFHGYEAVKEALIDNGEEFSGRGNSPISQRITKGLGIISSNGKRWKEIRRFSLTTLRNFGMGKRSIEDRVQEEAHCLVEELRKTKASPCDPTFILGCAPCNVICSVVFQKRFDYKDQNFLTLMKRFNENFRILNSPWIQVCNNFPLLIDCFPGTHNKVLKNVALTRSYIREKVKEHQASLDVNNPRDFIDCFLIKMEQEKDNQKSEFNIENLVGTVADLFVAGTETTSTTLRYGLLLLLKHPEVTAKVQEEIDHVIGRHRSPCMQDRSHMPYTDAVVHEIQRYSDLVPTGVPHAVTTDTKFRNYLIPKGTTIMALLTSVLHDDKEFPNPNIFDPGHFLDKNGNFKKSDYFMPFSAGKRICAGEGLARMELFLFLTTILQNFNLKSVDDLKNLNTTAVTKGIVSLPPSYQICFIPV

CYP2C9 = CYP2C9 (Homo sapiens, UniProt P11712)
Sequence of CYP2C9 (P11712 whole entry): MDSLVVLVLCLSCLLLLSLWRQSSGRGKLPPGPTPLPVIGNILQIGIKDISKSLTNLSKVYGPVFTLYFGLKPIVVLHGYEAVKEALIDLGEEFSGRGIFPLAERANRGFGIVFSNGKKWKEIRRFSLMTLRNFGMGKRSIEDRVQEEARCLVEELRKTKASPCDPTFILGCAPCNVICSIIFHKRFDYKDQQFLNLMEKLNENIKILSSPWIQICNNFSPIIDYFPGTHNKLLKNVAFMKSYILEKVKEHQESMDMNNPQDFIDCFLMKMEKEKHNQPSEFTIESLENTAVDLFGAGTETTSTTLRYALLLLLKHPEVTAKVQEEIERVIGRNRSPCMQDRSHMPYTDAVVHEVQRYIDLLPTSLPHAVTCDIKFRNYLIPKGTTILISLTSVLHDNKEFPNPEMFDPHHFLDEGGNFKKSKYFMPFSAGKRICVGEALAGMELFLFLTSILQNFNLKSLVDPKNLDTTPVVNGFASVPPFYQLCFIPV

CYP2C19 = CYP2C19 (Homo sapiens, UniProt P33261)
Sequence of CYP2C19 (P33261 whole entry): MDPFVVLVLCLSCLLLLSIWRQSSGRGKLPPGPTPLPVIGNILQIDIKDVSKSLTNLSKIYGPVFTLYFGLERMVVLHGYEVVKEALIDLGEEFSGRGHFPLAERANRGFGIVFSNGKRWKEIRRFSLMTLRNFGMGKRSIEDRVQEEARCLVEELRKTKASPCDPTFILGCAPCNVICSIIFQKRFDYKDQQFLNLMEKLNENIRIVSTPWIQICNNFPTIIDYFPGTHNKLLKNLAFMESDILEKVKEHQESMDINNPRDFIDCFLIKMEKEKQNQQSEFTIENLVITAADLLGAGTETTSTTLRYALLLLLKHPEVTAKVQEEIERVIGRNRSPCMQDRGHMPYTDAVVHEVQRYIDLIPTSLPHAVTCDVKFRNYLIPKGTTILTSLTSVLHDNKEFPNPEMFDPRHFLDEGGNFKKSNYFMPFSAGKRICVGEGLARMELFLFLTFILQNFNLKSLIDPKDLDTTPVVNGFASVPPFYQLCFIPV

CYP3A4 = CYP3A4 (Homo sapiens, UniProt P08684)
Sequence of CYP3A4 (P08684 whole entry): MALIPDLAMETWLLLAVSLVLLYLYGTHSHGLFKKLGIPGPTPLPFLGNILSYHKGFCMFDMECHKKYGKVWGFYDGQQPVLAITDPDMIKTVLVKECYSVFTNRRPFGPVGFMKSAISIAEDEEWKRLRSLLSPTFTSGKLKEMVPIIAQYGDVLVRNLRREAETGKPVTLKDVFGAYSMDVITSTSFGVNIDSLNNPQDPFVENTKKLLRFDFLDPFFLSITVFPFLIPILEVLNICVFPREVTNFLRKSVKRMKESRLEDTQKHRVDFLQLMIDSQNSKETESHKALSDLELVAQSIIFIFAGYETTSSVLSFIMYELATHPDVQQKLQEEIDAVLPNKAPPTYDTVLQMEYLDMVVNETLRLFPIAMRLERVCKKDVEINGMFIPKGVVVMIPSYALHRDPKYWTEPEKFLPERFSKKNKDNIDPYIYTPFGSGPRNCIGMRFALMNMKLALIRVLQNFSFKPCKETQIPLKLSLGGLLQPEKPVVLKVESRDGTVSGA

CYP2D6 = CYP2D6 (Homo sapiens, UniProt P10635)
Sequence of CYP2D6 (P10635 whole entry): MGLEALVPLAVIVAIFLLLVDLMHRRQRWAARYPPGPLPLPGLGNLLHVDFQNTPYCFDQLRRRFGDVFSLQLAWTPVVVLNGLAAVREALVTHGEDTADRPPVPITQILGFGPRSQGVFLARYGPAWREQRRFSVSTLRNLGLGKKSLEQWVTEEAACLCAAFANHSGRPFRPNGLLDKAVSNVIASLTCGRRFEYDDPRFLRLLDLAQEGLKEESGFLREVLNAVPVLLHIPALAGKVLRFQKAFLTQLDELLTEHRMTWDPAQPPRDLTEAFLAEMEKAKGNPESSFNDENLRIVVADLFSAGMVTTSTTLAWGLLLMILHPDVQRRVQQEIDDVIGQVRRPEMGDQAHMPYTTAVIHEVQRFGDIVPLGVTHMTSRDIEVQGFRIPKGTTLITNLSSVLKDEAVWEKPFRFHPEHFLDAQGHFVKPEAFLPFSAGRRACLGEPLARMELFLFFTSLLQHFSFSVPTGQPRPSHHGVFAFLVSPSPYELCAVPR

[4] = target: organic cation transporter 2 (OCT2) (Homo sapiens, UniProt O15244)
Sequence of organic cation transporter 2 (OCT2) (O15244 whole entry): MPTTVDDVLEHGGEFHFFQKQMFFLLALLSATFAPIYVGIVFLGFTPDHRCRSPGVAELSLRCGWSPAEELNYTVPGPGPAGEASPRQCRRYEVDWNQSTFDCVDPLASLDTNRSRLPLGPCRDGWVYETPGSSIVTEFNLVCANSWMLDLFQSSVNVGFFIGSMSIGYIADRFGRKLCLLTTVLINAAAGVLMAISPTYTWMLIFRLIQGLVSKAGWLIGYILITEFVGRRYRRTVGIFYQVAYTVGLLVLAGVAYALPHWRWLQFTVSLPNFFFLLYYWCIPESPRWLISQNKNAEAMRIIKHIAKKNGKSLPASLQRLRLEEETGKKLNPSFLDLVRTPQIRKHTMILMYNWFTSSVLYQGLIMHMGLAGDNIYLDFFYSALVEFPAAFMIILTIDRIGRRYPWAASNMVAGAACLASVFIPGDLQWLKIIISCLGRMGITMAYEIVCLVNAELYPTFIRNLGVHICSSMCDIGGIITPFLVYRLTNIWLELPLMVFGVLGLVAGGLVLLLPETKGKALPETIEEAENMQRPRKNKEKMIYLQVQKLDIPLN

[5] = target: organic anion transporter 3 (OAT3) (Homo sapiens, UniProt Q8TCC7)
[6] = target: organic anion transporter 1 (Homo sapiens, UniProt Q4U2R8)
CYP1A2 = CYP1A2 (Homo sapiens, UniProt P05177); assay: In vitro effect on CYP; conditions: therapeutically relevant concentrations
Sequence of CYP1A2 (P05177 whole entry): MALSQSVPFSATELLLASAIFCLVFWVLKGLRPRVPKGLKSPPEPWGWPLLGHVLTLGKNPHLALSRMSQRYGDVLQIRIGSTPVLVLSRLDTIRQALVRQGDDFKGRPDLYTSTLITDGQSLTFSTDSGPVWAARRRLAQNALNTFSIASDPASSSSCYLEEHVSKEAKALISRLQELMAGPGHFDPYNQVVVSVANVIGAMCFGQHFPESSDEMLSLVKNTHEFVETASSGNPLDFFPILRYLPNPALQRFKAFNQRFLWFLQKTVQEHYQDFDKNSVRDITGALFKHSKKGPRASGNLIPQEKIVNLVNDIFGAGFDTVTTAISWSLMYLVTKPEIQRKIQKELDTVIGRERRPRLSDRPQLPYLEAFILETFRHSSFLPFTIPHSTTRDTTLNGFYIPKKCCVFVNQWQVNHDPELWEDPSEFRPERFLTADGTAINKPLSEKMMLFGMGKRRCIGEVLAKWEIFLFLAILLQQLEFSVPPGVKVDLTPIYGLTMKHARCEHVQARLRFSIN

AR = AR (Homo sapiens, UniProt P10275); conditions: cited from earlier work
Sequence of AR (P10275 whole entry): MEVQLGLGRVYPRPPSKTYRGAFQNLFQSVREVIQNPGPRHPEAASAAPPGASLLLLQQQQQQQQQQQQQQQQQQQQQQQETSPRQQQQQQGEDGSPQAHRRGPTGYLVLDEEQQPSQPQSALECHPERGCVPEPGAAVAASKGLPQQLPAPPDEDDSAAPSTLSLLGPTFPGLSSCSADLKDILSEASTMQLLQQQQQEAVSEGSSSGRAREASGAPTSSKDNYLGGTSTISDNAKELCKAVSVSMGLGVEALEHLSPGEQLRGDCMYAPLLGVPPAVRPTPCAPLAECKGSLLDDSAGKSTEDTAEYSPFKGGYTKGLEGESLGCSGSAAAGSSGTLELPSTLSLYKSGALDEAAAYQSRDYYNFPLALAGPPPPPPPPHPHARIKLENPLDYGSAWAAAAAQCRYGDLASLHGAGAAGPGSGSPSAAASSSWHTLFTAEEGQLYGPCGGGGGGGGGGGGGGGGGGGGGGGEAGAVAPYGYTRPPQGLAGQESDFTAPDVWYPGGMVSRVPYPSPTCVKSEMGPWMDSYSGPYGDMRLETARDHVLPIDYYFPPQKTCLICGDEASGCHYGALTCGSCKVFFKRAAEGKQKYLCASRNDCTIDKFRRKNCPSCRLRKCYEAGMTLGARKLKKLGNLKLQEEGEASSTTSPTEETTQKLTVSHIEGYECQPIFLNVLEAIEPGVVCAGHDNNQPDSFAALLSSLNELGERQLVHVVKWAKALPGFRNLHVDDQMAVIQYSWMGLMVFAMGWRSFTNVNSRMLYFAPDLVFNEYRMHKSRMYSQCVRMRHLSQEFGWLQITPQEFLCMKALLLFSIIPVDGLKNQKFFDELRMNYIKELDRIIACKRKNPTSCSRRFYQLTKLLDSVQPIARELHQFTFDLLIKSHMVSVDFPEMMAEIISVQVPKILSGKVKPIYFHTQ

T877A AR mutant = T877A AR mutant (Homo sapiens, UniProt P10275, T878A); conditions: literature; cited from earlier work
Sequence of T877A AR mutant (P10275 whole entry T878A): as the sequence (P10275 whole entry) above, with T878A counted along it

[7] = up to 70 days after single oral radiolabeled dose

## N-desmethyl apalutamide
Plasma protein binding
  Bound to plasma proteins: 95%
[1]; single oral radiolabeled apalutamide 240 mg
  Share of the total AUC: 44%
[1]; [7]
  Dose recovered in feces as this compound: 2%
  Dose recovered in urine as this compound: 2.7%
[2]
  Inhibition of MATEs: inhibit
[3]
  AUC at steady-state, mean: 124 µg·h/mL
  Cmax at steady-state, mean: 5900 ng/mL
  Pharmacokinetics in specific populations: No clinically significant differences
P-gp
  Substrate for P-gp: substrates
BCRP
  Substrate for BCRP: not
OATP1B1
  Substrate for OATP1B1: not
OATP1B3
  Substrate for OATP1B3: not
CYP2B6
  CYP2B6 inhibition: moderate inhibitors
CYP2C8
  CYP2C8 inhibition: moderate inhibitors
CYP2C9
  CYP2C9 inhibition: weak inhibitors
CYP2C19
  CYP2C19 inhibition: weak inhibitors
CYP3A4
  CYP3A4 inhibition: weak inhibitors
CYP2D6
  Effect on CYP2D6: do not affect
[4]
  Inhibition of OCT2: inhibit
[5]
  Inhibition of OAT3: inhibit
[6]
  Inhibition of organic anion transporter 1: do not inhibit
CYP1A2
  Effect on CYP1A2: do not affect

## CC(O)c1cc(C(=O)N[C@@H](C)Cn2ccc(-c3ccc(C#N)c(Cl)c3)n2)n[nH]1 (mixture of isomers) [Darolutamide, N-{(2S)-1-[3-(3-chloro-4-cyanophenyl)-1H-pyrazol-1-yl]propan-2-yl}-5-(1-hydroxyethyl)-1H-pyrazole-3-carboxamide]
AR
  Affinity of binding to AR: high affinity

## CC(C)(O)C(=O)Nc1ccc([N+](=O)[O-])c(C(F)(F)F)c1 [hydroxyflutamide]
T877A AR mutant
  Activity in T877A AR mutant: AR agonists
